≈ marks a conversion by molar mass, not a printed value.
Assay: solubility of CBD in water and other aqueous solvents with Captisol (SAE-CD) and/or added polymers, surfactants, pH
Type: physicochemical
From the text: In some embodiments the addition of water soluble polymers and/or surfactants increases the solubility of the CBD/Captisol mixture. Therefore, in some embodiments the formulations may include the addition of these or other ingredients as solubility enhancers.

C=C(C)[C@@H]1CCC(C)=C[C@H]1c1c(O)cc(CCCCC)cc1O [CBD, cannabidiol]
solubility (aqueous solvent with 0.5% Poloxamer 188, without Captisol, aqueous with cosolvent or surfactant or cyclodextrin, Captisol 0%, 0.5% Poloxamer 188): 133 µg/mL (≈ 0.423 mM)
solubility (aqueous solvent, aqueous with cosolvent or surfactant or cyclodextrin, Captisol 0%, 1% CMC): 593 µg/mL (≈ 1.89 mM)
solubility (aqueous solvent, aqueous with cosolvent or surfactant or cyclodextrin, Captisol 0%, 1% CrEL): 8960 µg/mL (≈ 28.5 mM)
solubility (aqueous solvent, aqueous with cosolvent or surfactant or cyclodextrin, Captisol 0%, 1% HPMC): 590 µg/mL (≈ 1.88 mM)
solubility (aqueous solvent, aqueous with cosolvent or surfactant or cyclodextrin, Captisol 0%, 1% PVP): 602 µg/mL (≈ 1.92 mM)
solubility (aqueous solvent, aqueous with cosolvent or surfactant or cyclodextrin, Captisol 0%, 1% Tween 80): 4200 µg/mL (≈ 13.3 mM)
solubility (aqueous solvent, aqueous with cosolvent or surfactant or cyclodextrin, Captisol 0%, 5% CrEL): 21900 µg/mL (≈ 69.7 mM)
solubility (aqueous solvent, aqueous with cosolvent or surfactant or cyclodextrin, Captisol 0%, 10% CrEL): 47800 µg/mL (≈ 152 mM)
solubility (aqueous solvent, aqueous with cosolvent or surfactant or cyclodextrin, Captisol 20%, 0.5% CMC): 14.5 µg/mL (≈ 0.0461 mM)
solubility (aqueous solvent, aqueous with cosolvent or surfactant or cyclodextrin, Captisol 20%, 0.5% HPMC): 1320 µg/mL (≈ 4.2 mM)
solubility (aqueous solvent, aqueous with cosolvent or surfactant or cyclodextrin, Captisol 20%, 0.5% PVP): 1180 µg/mL (≈ 3.74 mM)
solubility (aqueous solvent, aqueous with cosolvent or surfactant or cyclodextrin, Captisol 20%, 0.5% Poloxamer 188): 1410 µg/mL (≈ 4.49 mM)
solubility (aqueous solvent, aqueous with cosolvent or surfactant or cyclodextrin, Captisol 20%, 1% CMC): 1710 µg/mL (≈ 5.44 mM)
solubility (aqueous solvent, aqueous with cosolvent or surfactant or cyclodextrin, Captisol 20%, 1% CrEL): 4280 µg/mL (≈ 13.6 mM)
solubility (aqueous solvent, aqueous with cosolvent or surfactant or cyclodextrin, Captisol 20%, 1% HPMC): 1550 µg/mL (≈ 4.94 mM)
solubility (aqueous solvent, aqueous with cosolvent or surfactant or cyclodextrin, Captisol 20%, 1% PVP): 1520 µg/mL (≈ 4.82 mM)
solubility (aqueous solvent, aqueous with cosolvent or surfactant or cyclodextrin, Captisol 20%, 1% Tween 80): 2010 µg/mL (≈ 6.4 mM)
solubility (aqueous solvent, aqueous with cosolvent or surfactant or cyclodextrin, Captisol 20%, 2% CMC): 365 µg/mL (≈ 1.16 mM)
solubility (aqueous solvent, aqueous with cosolvent or surfactant or cyclodextrin, Captisol 20%, 2% PVP): 840 µg/mL (≈ 2.67 mM)
solubility (aqueous solvent, aqueous with cosolvent or surfactant or cyclodextrin, Captisol 20%, 2% Tween 80): 720 µg/mL (≈ 2.29 mM)
solubility (aqueous solvent, aqueous with cosolvent or surfactant or cyclodextrin, Captisol 20%, 5% CrEL): 13500 µg/mL (≈ 43 mM)
solubility (aqueous solvent, aqueous with cosolvent or surfactant or cyclodextrin, Captisol 20%, 5% CrEL and EtOH): 21500 µg/mL (≈ 68.4 mM)
solubility (aqueous solvent, aqueous with cosolvent or surfactant or cyclodextrin, Captisol 20%, 10% CrEL): 46700 µg/mL (≈ 149 mM)
solubility (aqueous solvent, aqueous with cosolvent or surfactant or cyclodextrin, Captisol 20%, EtOH (line below the 10% heading)): 920 µg/mL (≈ 2.93 mM)
solubility (aqueous solvent, aqueous with cosolvent or surfactant or cyclodextrin, Captisol 20%, additive None): 850 µg/mL (≈ 2.7 mM)
solubility (aqueous solvent, aqueous with cosolvent or surfactant or cyclodextrin, Captisol 40%, 0.5% CMC): 3270 µg/mL (≈ 10.4 mM)
solubility (aqueous solvent, aqueous with cosolvent or surfactant or cyclodextrin, Captisol 40%, 0.5% HPMC): 2680 µg/mL (≈ 8.52 mM)
solubility (aqueous solvent, aqueous with cosolvent or surfactant or cyclodextrin, Captisol 40%, 0.5% PVP): 2950 µg/mL (≈ 9.37 mM)
solubility (aqueous solvent, aqueous with cosolvent or surfactant or cyclodextrin, Captisol 40%, 0.5% Tween 80): 2020 µg/mL (≈ 6.42 mM)
solubility (aqueous solvent, aqueous with cosolvent or surfactant or cyclodextrin, Captisol 40%, 1% CMC): 2640 µg/mL (≈ 8.38 mM)
solubility (aqueous solvent, aqueous with cosolvent or surfactant or cyclodextrin, Captisol 40%, 1% HPMC): 3450 µg/mL (≈ 11 mM)
solubility (aqueous solvent, aqueous with cosolvent or surfactant or cyclodextrin, Captisol 40%, 1% PVP): 3280 µg/mL (≈ 10.4 mM)
solubility (aqueous solvent, aqueous with cosolvent or surfactant or cyclodextrin, Captisol 40%, 1% Tween 80): 2650 µg/mL (≈ 8.43 mM)
solubility (aqueous solvent, aqueous with cosolvent or surfactant or cyclodextrin, Captisol 40%, additive None): 2800 µg/mL (≈ 8.9 mM)
solubility (aqueous solvent, aqueous with cosolvent or surfactant or cyclodextrin, Captisol 0%, 5% CrEL and EtOH): 36200 µg/mL (≈ 115 mM)
solubility (aqueous solvent, pH 2, aqueous with cosolvent or surfactant or cyclodextrin, Captisol 20%, pH ~2): 2480 µg/mL (≈ 7.89 mM)
solubility (aqueous solvent, pH 4, aqueous with cosolvent or surfactant or cyclodextrin, Captisol 20%, pH 4): 650 µg/mL (≈ 2.07 mM)
solubility (aqueous solvent, pH 7.4, aqueous with cosolvent or surfactant or cyclodextrin, Captisol 20%, PBS (pH = 7.4)): 720 µg/mL (≈ 2.29 mM)
solubility (aqueous solvent, pH 7.4, aqueous with cosolvent or surfactant or cyclodextrin, Captisol 40%, PBS (pH = 7.4)): 2300 µg/mL (≈ 7.31 mM)
solubility (aqueous solvent, pH 9, aqueous with cosolvent or surfactant or cyclodextrin, Captisol 20%, pH 9): 850 µg/mL (≈ 2.7 mM)
solubility (aqueous solvent, water, Captisol 0%, additive None): 0.26 µg/mL (≈ 0.000827 mM)
effect of complexation with Captisol on solubility of CBD in water and other aqueous solvents (complexation with an SAE-CD (Captisol)): significantly increased

Source: patent publication US20190030170A1, “CANNABINOID FORMULATIONS WITH IMPROVED SOLUBILITY” (Vireo Health LLC, priority 2016, published 2019)
